{"source": "patent US20230002367A1", "about": "“BIFUNCTIONAL COMPOUNDS” (Hoffmann-La Roche Inc., priority 2019, published 2023)", "molecular_target": "T1, SMARCA2 (Homo sapiens, UniProt P51531)", "T1 construct": "endogenous in cells", "T1 sequence (P51531 whole entry)": "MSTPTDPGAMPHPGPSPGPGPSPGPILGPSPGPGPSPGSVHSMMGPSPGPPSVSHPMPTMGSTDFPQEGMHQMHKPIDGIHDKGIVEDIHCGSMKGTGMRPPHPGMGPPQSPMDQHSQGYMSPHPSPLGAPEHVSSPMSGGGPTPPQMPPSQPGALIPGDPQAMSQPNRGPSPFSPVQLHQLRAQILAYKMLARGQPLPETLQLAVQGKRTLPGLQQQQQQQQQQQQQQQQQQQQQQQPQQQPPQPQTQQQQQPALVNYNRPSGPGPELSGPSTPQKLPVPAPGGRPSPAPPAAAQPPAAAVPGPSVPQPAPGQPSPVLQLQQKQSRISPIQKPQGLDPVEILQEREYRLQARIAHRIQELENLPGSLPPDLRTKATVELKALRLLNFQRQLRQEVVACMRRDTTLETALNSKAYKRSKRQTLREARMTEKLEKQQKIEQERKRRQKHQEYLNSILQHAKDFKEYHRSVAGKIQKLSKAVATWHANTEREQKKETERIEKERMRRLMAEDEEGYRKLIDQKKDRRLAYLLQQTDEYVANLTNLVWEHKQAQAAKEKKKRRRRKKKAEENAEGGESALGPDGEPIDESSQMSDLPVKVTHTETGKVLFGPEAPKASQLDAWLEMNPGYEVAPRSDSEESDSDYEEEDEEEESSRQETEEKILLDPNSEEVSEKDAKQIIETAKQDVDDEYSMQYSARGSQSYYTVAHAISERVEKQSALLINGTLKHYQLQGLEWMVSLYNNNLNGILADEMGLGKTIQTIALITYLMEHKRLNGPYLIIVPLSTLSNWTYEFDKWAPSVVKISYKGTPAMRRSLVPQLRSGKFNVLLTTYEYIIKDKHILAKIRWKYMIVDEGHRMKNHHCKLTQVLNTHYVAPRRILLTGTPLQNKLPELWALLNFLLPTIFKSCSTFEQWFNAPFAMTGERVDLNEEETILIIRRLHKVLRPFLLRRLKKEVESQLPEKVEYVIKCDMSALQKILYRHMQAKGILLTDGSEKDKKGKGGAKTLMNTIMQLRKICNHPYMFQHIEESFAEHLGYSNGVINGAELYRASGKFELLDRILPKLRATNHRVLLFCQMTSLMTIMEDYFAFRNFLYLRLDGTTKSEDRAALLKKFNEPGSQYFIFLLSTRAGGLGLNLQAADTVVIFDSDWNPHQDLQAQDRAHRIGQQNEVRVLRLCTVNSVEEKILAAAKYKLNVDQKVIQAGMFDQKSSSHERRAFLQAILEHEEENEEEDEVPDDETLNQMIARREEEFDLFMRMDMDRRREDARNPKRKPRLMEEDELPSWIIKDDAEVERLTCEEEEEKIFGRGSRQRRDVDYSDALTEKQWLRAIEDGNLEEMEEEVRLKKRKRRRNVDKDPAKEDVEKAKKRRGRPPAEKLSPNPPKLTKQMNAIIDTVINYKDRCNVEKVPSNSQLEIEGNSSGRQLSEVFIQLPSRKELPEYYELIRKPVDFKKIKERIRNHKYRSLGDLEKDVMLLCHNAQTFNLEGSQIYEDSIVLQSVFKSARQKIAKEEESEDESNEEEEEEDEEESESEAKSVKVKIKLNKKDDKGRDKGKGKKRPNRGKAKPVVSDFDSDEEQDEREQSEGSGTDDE", "assay": "SMARCA2 HiBiT degradation assay (cellular)", "assay_type": "cell-based", "conditions": "for Emax: A549, Emax = amount of residual protein remaining in the cell following compound treatment; for DC50: SMARCA2 HiBiT cells, luminescence readout, 11-point titration from 10 μM, 6 hours or 16 hours, read-out: HiBit A549 SMARCA2 IP"}
{"smiles": "Cc1ncsc1-c1ccc(CNC(=O)[C@@H]2C[C@@H](O)CN2C(=O)[C@@H](NC(=O)CCCCCCCCC(=O)N2CC(Oc3cc(-c4ccccc4O)nnc3N)CC(c3ccccc3)C2)C(C)(C)C)cc1", "note": "(mixture of isomers) [Example 65, rac-(2S,4R)-4-hydroxy-N-[[4-(4-methylthiazol-5-yl)phenyl]methyl]-1-[rac-(2S)-2-[[10-[3-[3-amino-6-(2-hydroxyphenyl)pyridazin-4-yl]oxy-5-phenyl-1-piperidyl]-10-oxo-decanoyl]amino]-3,3-dimethyl-butanoyl]pyrrolidine-2-carboxamide]", "values": [{"measurement": "Emax", "value": 24, "unit": "%"}, {"measurement": "DC50", "value": 1030, "unit": "nM"}]}
{"smiles": "Cc1ncsc1-c1ccc(CNC(=O)[C@@H]2C[C@@H](O)CN2C(=O)[C@@H](NC(=O)CCCCCC(=O)N2CC(Oc3cc(-c4ccccc4O)nnc3N)CC(c3ccccc3)C2)C(C)(C)C)cc1", "note": "(mixture of isomers) [Example 66, Trans rac-(2S,4R)-4-hydroxy-N-[[4-(4-methylthiazol-5-yl)phenyl]methyl]-1-[rac-(2S)-2-[[7-[3-[3-amino-6-(2-hydroxyphenyl)pyridazin-4-yl]oxy-5-phenyl-1-piperidyl]-7-oxo-heptanoyl]amino]-3,3-dimethyl-butanoyl]pyrrolidine-2-carboxamide]", "values": [{"measurement": "Emax", "value": 49, "unit": "%"}, {"measurement": "DC50", "value": 2020, "unit": "nM"}]}
{"smiles": "Cc1ncsc1-c1ccc(CNC(=O)[C@@H]2C[C@@H](O)CN2C(=O)[C@@H](NC(=O)CCCCCCCCC(=O)N2CC(Oc3cc(-c4ccccc4O)nnc3N)CC(c3ccccc3)C2)C(C)(C)C)cc1", "note": "(mixture of isomers) [Example 67, Trans rac-(2S,4R)-4-hydroxy-N-[[4-(4-methylthiazol-5-yl)phenyl]methyl]-1-[rac-(2S)-2-[[10-[3-[3-amino-6-(2-hydroxyphenyl)pyridazin-4-yl]oxy-5-phenyl-1-piperidyl]-10-oxo-decanoyl]amino]-3,3-dimethyl-butanoyl]pyrrolidine-2-carboxamide]", "values": [{"measurement": "HiBit A549 SMARCA2 Emax (%)", "setting": "Emax = amount of residual protein remaining in the cell following compound treatment", "value": 29, "unit": "%"}, {"measurement": "DC50", "value": 839, "unit": "nM"}]}
{"smiles": "Cc1ncsc1-c1ccc([C@H](C)NC(=O)[C@@H]2C[C@@H](O)CN2C(=O)[C@@H](NC(=O)CCC(=O)N2CCN(CCOc3cccc(N4CCCC(Oc5cc(-c6ccccc6O)nnc5N)C4)c3)CC2)C(C)(C)C)cc1", "note": "(mixture of isomers) [Example 69, rac-(2S,4R)-4-hydroxy-1-[rac-(2S)-2-[[4-[4-[2-[3-[3-[3-amino-6-(2-hydroxyphenyl)pyridazin-4-yl]oxy-1-piperidyl]phenoxy]ethyl]piperazin-1-yl]-4-oxo-butanoyl]amino]-3,3-dimethyl-butanoyl]-N-[rac-(1S)-1-[4-(4-methylthiazol-5-yl)phenyl]ethyl]pyrrolidine-2-carboxamide]", "values": [{"measurement": "Emax", "value": 60, "unit": "%"}, {"measurement": "DC50", "value": 2110, "unit": "nM"}]}
{"smiles": "Cc1ncsc1-c1ccc([C@H](C)NC(=O)[C@@H]2C[C@@H](O)CN2C(=O)[C@@H](NC(=O)CCCCCC(=O)N2CCN(CCOc3cccc(N4CCCC(Oc5cc(-c6ccccc6O)nnc5N)C4)c3)CC2)C(C)(C)C)cc1", "note": "(mixture of isomers) [Example 70, rac-(2S,4R)-4-hydroxy-1-[rac-(2S)-2-[[7-[4-[2-[3-[3-[3-amino-6-(2-hydroxyphenyl)pyridazin-4-yl]oxy-1-piperidyl]phenoxy]ethyl]piperazin-1-yl]-7-oxo-heptanoyl]amino]-3,3-dimethyl-butanoyl]-N-[rac-(1S)-1-[4-(4-methylthiazol-5-yl)phenyl]ethyl]pyrrolidine-2-carboxamide]", "values": [{"measurement": "Emax", "value": 50, "unit": "%"}, {"measurement": "DC50", "value": 1180, "unit": "nM"}]}
{"smiles": "Cc1ncsc1-c1ccc([C@H](C)NC(=O)[C@@H]2C[C@@H](O)CN2C(=O)[C@@H](NC(=O)CCCCCCCCC(=O)N2CCN(CCOc3cccc(N4CCCC(Oc5cc(-c6ccccc6O)nnc5N)C4)c3)CC2)C(C)(C)C)cc1", "note": "(mixture of isomers) [Example 71, rac-(2S,4R)-4-hydroxy-1-[rac-(2S)-2-[[10-[4-[2-[3-[3-[3-amino-6-(2-hydroxyphenyl)pyridazin-4-yl]oxy-1-piperidyl]phenoxy]ethyl]piperazin-1-yl]-10-oxo-decanoyl]amino]-3,3-dimethyl-butanoyl]-N-[rac-(1S)-1-[4-(4-methylthiazol-5-yl)phenyl]ethyl]pyrrolidine-2-carboxamide]", "values": [{"measurement": "Emax", "value": 38, "unit": "%"}, {"measurement": "DC50", "value": 522, "unit": "nM"}]}
{"smiles": "Cc1ncsc1-c1ccc([C@H](C)NC(=O)[C@@H]2C[C@@H](O)CN2C(=O)[C@@H](NC(=O)CCCCCCCCCCC(=O)N2CCN(CCOc3cccc(N4CCCC(Oc5cc(-c6ccccc6O)nnc5N)C4)c3)CC2)C(C)(C)C)cc1", "note": "(mixture of isomers) [Example 72, rac-(2S,4R)-4-hydroxy-1-[rac-(2S)-2-[[12-[4-[2-[3-[3-[3-amino-6-(2-hydroxyphenyl)pyridazin-4-yl]oxy-1-piperidyl]phenoxy]ethyl]piperazin-1-yl]-12-oxo-dodecanoyl]amino]-3,3-dimethyl-butanoyl]-N-[rac-(1S)-1-[4-(4-methylthiazol-5-yl)phenyl]ethyl]pyrrolidine-2-carboxamide]", "values": [{"measurement": "Emax", "value": 35, "unit": "%"}, {"measurement": "DC50", "value": 421, "unit": "nM"}]}
{"smiles": "Cc1ncsc1-c1ccc([C@H](C)NC(=O)[C@@H]2C[C@@H](O)CN2C(=O)[C@@H](NC(=O)CCCCCCNC(=O)C(c2ccccc2)n2cc(-c3cc(-c4ccccc4O)nnc3N)cn2)C(C)(C)C)cc1", "note": "(mixture of isomers) [Example 75, rac-(2S,4R)-4-hydroxy-1-[rac-(2S)-2-[7-[[2-[4-[3-amino-6-(2-hydroxyphenyl)pyridazin-4-yl]pyrazol-1-yl]-2-phenyl-acetyl]amino]heptanoylamino]-3,3-dimethyl-butanoyl]-N-[rac-(1S)-1-[4-(4-methylthiazol-5-yl)phenyl]ethyl]pyrrolidine-2-carboxamide]", "values": [{"measurement": "Emax", "value": 26, "unit": "%"}, {"measurement": "DC50", "value": 777, "unit": "nM"}]}
{"smiles": "Cc1ncsc1-c1ccc([C@H](C)NC(=O)[C@@H]2C[C@@H](O)CN2C(=O)[C@@H](NC(=O)CCCCCCCCCCCCC(=O)N2CCN(c3ccc(N4CCCC(Oc5cc(-c6ccccc6O)nnc5N)C4)cc3)CC2)C(C)(C)C)cc1", "note": "(mixture of isomers) [Example 76, rac-(2S,4R)-4-hydroxy-1-[rac-(2S)-2-[[14-[4-[4-[3-[3-amino-6-(2-hydroxyphenyl)pyridazin-4-yl]oxy-1-piperidyl]phenyl]piperazin-1-yl]-14-oxo-tetradecanoyl]amino]-3,3-dimethyl-butanoyl]-N-[rac-(1S)-1-[4-(4-methylthiazol-5-yl)phenyl]ethyl]pyrrolidine-2-carboxamide]", "values": [{"measurement": "Emax", "value": 31, "unit": "%"}, {"measurement": "DC50", "value": 207, "unit": "nM"}]}
{"smiles": "Cc1ncsc1-c1ccc([C@H](C)NC(=O)[C@@H]2C[C@@H](O)CN2C(=O)[C@@H](NC(=O)CCCCCC(=O)N2CCN(CCOc3ccc(N4CCCC(Oc5cc(-c6ccccc6O)nnc5N)C4)cc3)CC2)C(C)(C)C)cc1", "note": "(mixture of isomers) [Example 77, rac-(2S,4R)-4-hydroxy-1-[rac-(2S)-2-[[7-[4-[2-[4-[3-[3-amino-6-(2-hydroxyphenyl)pyridazin-4-yl]oxy-1-piperidyl]phenoxy]ethyl]piperazin-1-yl]-7-oxo-heptanoyl]amino]-3,3-dimethyl-butanoyl]-N-[rac-(1S)-1-[4-(4-methylthiazol-5-yl)phenyl]ethyl]pyrrolidine-2-carboxamide]", "values": [{"measurement": "Emax", "value": 24, "unit": "%"}, {"measurement": "DC50", "value": 244, "unit": "nM"}]}
{"smiles": "Cc1ncsc1-c1ccc([C@H](C)NC(=O)[C@@H]2C[C@@H](O)CN2C(=O)[C@@H](NC(=O)CCCCCCCCC(=O)N2CCN(CCOc3ccc(N4CCCC(Oc5cc(-c6ccccc6O)nnc5N)C4)cc3)CC2)C(C)(C)C)cc1", "note": "(mixture of isomers) [Example 78, rac-(2S,4R)-4-hydroxy-1-[rac-(2S)-2-[[10-[4-[2-[4-[3-[3-amino-6-(2-hydroxyphenyl)pyridazin-4-yl]oxy-1-piperidyl]phenoxy]ethyl]piperazin-1-yl]-10-oxo-decanoyl]amino]-3,3-dimethyl-butanoyl]-N-[rac-(1S)-1-[4-(4-methylthiazol-5-yl)phenyl]ethyl]pyrrolidine-2-carboxamide]", "values": [{"measurement": "Emax", "value": 20, "unit": "%"}, {"measurement": "DC50", "value": 63, "unit": "nM"}]}
{"smiles": "Cc1ncsc1-c1ccc([C@H](C)NC(=O)[C@@H]2C[C@@H](O)CN2C(=O)[C@@H](NC(=O)CCCCCCCCCCC(=O)N2CCN(CCOc3ccc(N4CCCC(Oc5cc(-c6ccccc6O)nnc5N)C4)cc3)CC2)C(C)(C)C)cc1", "note": "(mixture of isomers) [Example 79, rac-(2S,4R)-4-hydroxy-1-[rac-(2S)-2-[[12-[4-[2-[4-[3-[3-amino-6-(2-hydroxyphenyl)pyridazin-4-yl]oxy-1-piperidyl]phenoxy]ethyl]piperazin-1-yl]-12-oxo-dodecanoyl]amino]-3,3-dimethyl-butanoyl]-N-[rac-(1S)-1-[4-(4-methylthiazol-5-yl)phenyl]ethyl]pyrrolidine-2-carboxamide]", "values": [{"measurement": "Emax", "value": 21, "unit": "%"}, {"measurement": "DC50", "value": 78, "unit": "nM"}]}
{"smiles": "Cc1ncsc1-c1ccc([C@H](C)NC(=O)[C@@H]2C[C@@H](O)CN2C(=O)[C@@H](NC(=O)CCCCCCCCCCCCC(=O)N2CCN(CCOc3ccc(N4CCCC(Oc5cc(-c6ccccc6O)nnc5N)C4)cc3)CC2)C(C)(C)C)cc1", "note": "(mixture of isomers) [Example 80, rac-(2S,4R)-4-hydroxy-1-[rac-(2S)-2-[[14-[4-[2-[4-[3-[3-amino-6-(2-hydroxyphenyl)pyridazin-4-yl]oxy-1-piperidyl]phenoxy]ethyl]piperazin-1-yl]-14-oxo-tetradecanoyl]amino]-3,3-dimethyl-butanoyl]-N-[rac-(1S)-1-[4-(4-methylthiazol-5-yl)phenyl]ethyl]pyrrolidine-2-carboxamide]", "values": [{"measurement": "Emax", "value": 25, "unit": "%"}, {"measurement": "DC50", "value": 383, "unit": "nM"}]}
{"smiles": "Cc1ncsc1-c1ccc([C@H](C)NC(=O)[C@@H]2C[C@@H](O)CN2C(=O)[C@@H](NC(=O)CCCCCCCCCCCCC(=O)N2CCN(CCOc3cccc(N4CCCC(Oc5cc(-c6ccccc6O)nnc5N)C4)c3)CC2)C(C)(C)C)cc1", "note": "(mixture of isomers) [Example 81, rac-(2S,4R)-4-hydroxy-1-[rac-(2S)-2-[[14-[4-[2-[3-[3-[3-amino-6-(2-hydroxyphenyl)pyridazin-4-yl]oxy-1-piperidyl]phenoxy]ethyl]piperazin-1-yl]-14-oxo-tetradecanoyl]amino]-3,3-dimethyl-butanoyl]-N-[rac-(1S)-1-[4-(4-methylthiazol-5-yl)phenyl]ethyl]pyrrolidine-2-carboxamide]", "values": [{"measurement": "Emax", "value": 34, "unit": "%"}, {"measurement": "DC50", "value": 504, "unit": "nM"}]}
